Among the data in BindingDB's records for doi:10.1016/j.ejmech.2010.08.026 (Instituto De Parasitología Y Biomedicina …, 2010) are IC50 values, retold here.

Structures are written as SMILES.

The target of this assay is T1, Purine nucleoside phosphorylase (Plasmodium falciparum, UniProt Q8T9Z7).
T1 sequence (Q8T9Z7 whole entry): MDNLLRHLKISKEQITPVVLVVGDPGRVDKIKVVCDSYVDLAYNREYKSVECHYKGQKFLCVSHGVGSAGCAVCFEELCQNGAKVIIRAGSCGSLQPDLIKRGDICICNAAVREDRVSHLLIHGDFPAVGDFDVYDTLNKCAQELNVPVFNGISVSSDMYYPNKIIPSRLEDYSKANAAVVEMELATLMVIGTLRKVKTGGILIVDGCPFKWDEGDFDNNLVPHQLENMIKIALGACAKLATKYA
Briefly: Inhibition of Plasmodium falciparum PNP expressed in Escherichia coli BL21(DE3) cells by spectrophotometry.

Take `O=c1[nH]c(O)c(Cc2ccccc2)c(=O)[nH]1` [5-benzylpyrimidine-2,4,6(1H,3H,5H)-trione]: the IC50 is over 1000 µM.

The IC50 is the concentration that gives 50% inhibition. Low readings indicate inhibition by little substance, high ones a need for much substance.
